# According to patent US20050112573A1, “Method of detecting toxic substance” (priority 2001, published 2005):
# System: yeast genes (level of expressed mRNA)
# Test: DNA chip analysis of expressed mRNA of yeast genes after 2 h culture with a toxic chemical substance
# Format: cell-based, Saccharomyces cerevisiae S288C
# Description: Yeast (Saccharomyces cerevtisiae S288C (α SUC2mal mel gap2 CUP1)) were cultured at 25° C. on YPD medium (yeast extract 1%, polypepton 2%, glucose 2%). One of toxic chemical substances was added to the cell at logarithmic growth phase, and the cell was further cultured for two hours. Cell was cultured without any chemical substance in the same condition, and was used as control. Concentrations of the chemical substances were defined to inhibit the growth of the yeast but not lead to death.
# After the completion of cultivation, the culture was centrifuged to collect the cells. To the cells, sodium acetate buffer (50 mM sodium acetate, 10 mM EDTA, 1% SDS) was added, and the mixture was shaken at 65° C. for five minutes, followed by returning to room temperature, and obtaining the supernatant, which procedure was repeated two times. To the supernatant, ½ amount of a solution of phenol/chloroform was added, and the mixture was centrifuged to give a supernatant, which was added with an equal amount of chloroform, and the mixture was centrifuged to give a supernatant. To the supernatant, an equal amount of isopropanol containing 0.3 M sodium acetate was added, and the mixture was allowed to stand at room temperature for 30 minutes, after which the mixture was centrifuged to give a sediment of the whole RNAs. Seventy % ethanol was added to the sediment, and the mixture was again centrifuged to give a sediment, which was then dried and dissolved in water. mRNA was isolated from the whole RNAs as followings. In view of the fact that a poly A chain is attached to the 3′ terminus of mRNA, a polynucleotide having a poly T structure which was immobilized on the surface of latex beads was used to trap the mRNA, and then the mRNA was washed and eluted with spine column (Oligotex-dT30<Super>mRNA Purification Kit, Takara). Reverse transcription of the mRNA was conducted with a reverse transcriptase (Super Script II Reverse Transcriptase; catalogue No. 18064-014, GibcoBRL) using fluorescence-labeled nucleotides to give cDNAs that were introduced with Cy3-dUTP or Cy5-dUTP during the reverse transcription.
# The labeled cDNAs were dissolved in TE buffer (10 mM Tris-HCl/1 mM EDTA, pH8.0), and the solution was dropped on the DNA chip containing the whole genes of yeast (DNA Chip Research Inc. Japan) so that the cDNAs were hybridized on the DNA chip at 65° C. for over 12 hours. The fluoresces intensity of the DNA chip was read with a scanner, and the ratio relative to the fluorescence intensity resulting from the absence of chemical substance was estimated as the following, which is shown in Tables 1 to 9: [formula]
# In the Tables, “Intensity” indicated in the rightmost column is a value of the level of expressed mRNA of each gene in control cells as divided by the average level of the expressions of the whole genes.
substance,measurement,setting,value
CdCl2 [(2)],The level of expressed mRNA in the presence of chemical substance/,"yeast gene YAL053W, ratio to control without chemical",0.9
same,The level of expressed mRNA in the presence of chemical substance/The level of expressed mRNA in the absence of chemical substance,yeast gene YAR010C,1.2
same,The level of expressed mRNA in the presence of chemical substance/The level of expressed mRNA in the absence of chemical substance,yeast gene YBL005W-A,0.9
same,The level of expressed mRNA in the presence of chemical substance/The level of expressed mRNA in the absence of chemical substance,yeast gene YBL041W,1.4
same,The level of expressed mRNA in the presence of chemical substance/The level of expressed mRNA in the absence of chemical substance,yeast gene YBL043W,1.2
same,The level of expressed mRNA in the presence of chemical substance/,"yeast gene YBL048W, ratio to control without chemical substance, 2 h culture",7.9
same,The level of expressed mRNA in the presence of chemical substance/The level of expressed mRNA in the absence of chemical substance,yeast gene YBL078C,2.7
same,The level of expressed mRNA in the presence of chemical substance/,"yeast gene YBL107C, ratio to control without chemical substance, 2 h culture",1.1
same,The level of expressed mRNA in the presence of chemical substance/in the absence of chemical substance,yeast gene YBR036C,1.7
same,The level of expressed mRNA in the presence of chemical substance/The level of expressed mRNA in the absence of chemical substance,yeast gene YBR214W,2.1
same,The level of expressed mRNA in the presence of chemical substance/in the absence of chemical substance,yeast gene YBR298C,1.0
same,The level of expressed mRNA in the presence of chemical substance/The level of expressed mRNA in the absence of chemical substance,yeast gene YCL020W,2.5
same,The level of expressed mRNA in the presence of chemical substance/The level of expressed mRNA in the absence of chemical substance,yeast gene YCL027W,2.0
same,The level of expressed mRNA in the presence of chemical substance/The level of expressed mRNA in the absence of chemical substance,yeast gene YCR004C,1.0
same,The level of expressed mRNA in the presence of chemical substance/The level of expressed mRNA in the absence of chemical substance,yeast gene YCR071C,0.7
same,The level of expressed mRNA in the presence of chemical substance/The level of expressed mRNA in the absence of chemical substance,yeast gene YCR088W,1.1
same,The level of expressed mRNA in the presence of chemical substance/The level of expressed mRNA in the absence of chemical substance,yeast gene YDL008W,1.0
same,The level of expressed mRNA in the presence of chemical substance/,"yeast gene YDL072C, ratio to control without chemical",1.1
same,The level of expressed mRNA in the presence of chemical substance/in the absence of chemical substance,yeast gene YDL078C,1.1
same,The level of expressed mRNA in the presence of chemical substance/,"yeast gene YDL204W, ratio to control without chemical",1.9
same,The level of expressed mRNA in the presence of chemical substance/in the absence of chemical substance,yeast gene YDL215C,1.5
same,The level of expressed mRNA in the presence of chemical substance/,"yeast gene YDL222C, ratio to control without chemical",1.1
same,The level of expressed mRNA in the presence of chemical substance/The level of expressed mRNA in the absence of chemical substance,yeast gene YDL238C,1.0
same,The level of expressed mRNA in the presence of chemical substance/The level of expressed mRNA in the absence of chemical substance,yeast gene YDR055W,2.1
same,The level of expressed mRNA in the presence of chemical substance/The level of expressed mRNA in the absence of chemical substance,yeast gene YDR084C,0.9
same,The level of expressed mRNA in the presence of chemical substance/The level of expressed mRNA in the absence of chemical substance,yeast gene YDR085C,1.8
same,The level of expressed mRNA in the presence of chemical substance/The level of expressed mRNA in the absence of chemical substance,yeast gene YDR104C,1.1
same,The level of expressed mRNA in the presence of chemical substance/The level of expressed mRNA in the absence of chemical substance,yeast gene YDR115W,0.9
same,The level of expressed mRNA in the presence of chemical substance/The level of expressed mRNA in the absence of chemical substance,yeast gene YDR259C,1.0
same,The level of expressed mRNA in the presence of chemical substance/in the absence of chemical substance,yeast gene YDR297W,0.8
same,The level of expressed mRNA in the presence of chemical substance/The level of expressed mRNA in the absence of chemical substance,yeast gene YDR315C,1.4
same,The level of expressed mRNA in the presence of chemical substance/,"yeast gene YDR330W, ratio to control without chemical substance, 2 h culture",1.5
same,The level of expressed mRNA in the presence of chemical substance/The level of expressed mRNA in the absence of chemical substance,yeast gene YDR358W,1.1
same,The level of expressed mRNA in the presence of chemical substance/in the absence of chemical substance,yeast gene YDR387C,0.9
same,The level of expressed mRNA in the presence of chemical substance/The level of expressed mRNA in the absence of chemical substance,yeast gene YDR388W,0.7
same,The level of expressed mRNA in the presence of chemical substance/,"yeast gene YDR411C, ratio to control without chemical substance, 2 h culture",2.8
same,The level of expressed mRNA in the presence of chemical substance/The level of expressed mRNA in the absence of chemical substance,yeast gene YDR432W,0.8
same,The level of expressed mRNA in the presence of chemical substance/The level of expressed mRNA in the absence of chemical substance,yeast gene YDR481C,2.3
same,The level of expressed mRNA in the presence of chemical substance/The level of expressed mRNA in the absence of chemical substance,yeast gene YDR510W,1.3
same,The level of expressed mRNA in the presence of chemical substance/,"yeast gene YDR511W, ratio to control without chemical substance, 2 h culture",1.7
same,The level of expressed mRNA in the presence of chemical substance/,"yeast gene YDR545W, ratio to control without chemical substance, 2 h culture",1.2
same,The level of expressed mRNA in the presence of chemical substance/,"yeast gene YEL001C, ratio to control without chemical",1.0
same,The level of expressed mRNA in the presence of chemical substance/The level of expressed mRNA in the absence of chemical substance,yeast gene YEL042W,0.9
same,The level of expressed mRNA in the presence of chemical substance/The level of expressed mRNA in the absence of chemical substance,yeast gene YEL066W,2.9
same,The level of expressed mRNA in the presence of chemical substance/,"yeast gene YER004W, ratio to control without chemical substance, 2 h culture",1.5
same,The level of expressed mRNA in the presence of chemical substance/,"yeast gene YER035W, ratio to control without chemical substance, 2 h culture",1.6
same,The level of expressed mRNA in the presence of chemical substance/The level of expressed mRNA in the absence of chemical substance,yeast gene YER039C,1.2
same,The level of expressed mRNA in the presence of chemical substance/,"yeast gene YER079W, ratio to control without chemical substance, 2 h culture",1.6
same,The level of expressed mRNA in the presence of chemical substance/,"yeast gene YER106W, ratio to control without chemical",0.7
same,The level of expressed mRNA in the presence of chemical substance/The level of expressed mRNA in the absence of chemical substance,yeast gene YER107C,0.5
same,The level of expressed mRNA in the presence of chemical substance/The level of expressed mRNA in the absence of chemical substance,yeast gene YER130C,1.6
same,The level of expressed mRNA in the presence of chemical substance/,"yeast gene YER158C, ratio to control without chemical substance, 2 h culture",0.9
same,The level of expressed mRNA in the presence of chemical substance/,"yeast gene YER163C, ratio to control without chemical substance, 2 h culture",2.4
same,The level of expressed mRNA in the presence of chemical substance/,"yeast gene YER175C, ratio to control without chemical substance, 2 h culture",1.2
same,The level of expressed mRNA in the presence of chemical substance/,"yeast gene YFL006W, ratio to control without chemical substance, 2 h culture",2.8
